Measurements reported in ChEMBL document CHEMBL5518172, “Discovery of hydroxamate as a promising scaffold dually inhibiting metallo- and serine-β-lactamases” (Eur J Med Chem, 2024).
Calls of active or inactive are those of the source. The calls are words filed in the database; no cut-off is given here.

What was measured:
[1] = Inhibition of recombinant serine beta lactamase KPC-2 (unknown origin) expressed in Escherichia coli BL21 (DE3) cells using meropenem as substrate by spectrometric analysis; design: species or system Bacteria
[2] = target: Metallo-beta-lactamase type 2 (Bacteria) (UniProt C7C422); test: Inhibition of recombinant NDM-1 (unknown origin) expressed in Escherichia coli BL21 (DE3) cells using meropenem as substrate assessed as reduction in residual activity; settings: dose 0.075-20 µM
Chain of Metallo-beta-lactamase type 2 (Bacteria) (C7C422 whole entry): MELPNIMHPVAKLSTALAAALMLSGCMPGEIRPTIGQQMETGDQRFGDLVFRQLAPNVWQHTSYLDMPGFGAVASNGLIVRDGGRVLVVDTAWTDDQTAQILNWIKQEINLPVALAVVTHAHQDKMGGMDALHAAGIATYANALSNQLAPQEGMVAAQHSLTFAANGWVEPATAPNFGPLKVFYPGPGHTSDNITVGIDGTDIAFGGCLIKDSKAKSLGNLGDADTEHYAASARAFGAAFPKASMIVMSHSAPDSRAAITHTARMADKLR

Bacteria [3] = test: Inhibition of recombinant IMP-1 (unknown origin) expressed in Escherichia coli BL21 (DE3) cells assessed as reduction in residual activity incubated for 20 hrs; settings: dose 0.25-5 µM
Escherichia coli [4] = test: Synergistic antibacterial activity against Escherichia coli clinical isolate 24 assessed as fold decrease in meropenem MIC at 64 microg/ml measured after 16 hrs by CLSI protocol based broth microdilution method; format: functional; settings: dose 64 µg/ml
[5] = target: Metallo-beta-lactamase type 2 (Bacteria) (UniProt C7C422); test: Inhibition of recombinant NDM-1 (unknown origin) expressed in Escherichia coli BL21 (DE3) cells assessed as maximal inhibition at 5 uM incubated for 5 hrs
Bacteria [6] = test: Inhibition of recombinant serine beta lactamase KPC-2 (unknown origin) expressed in Escherichia coli BL21 (DE3) cells assessed as reduction in residual activity incubated for 360 min; settings: dose 0.25-5 µM
Bacteria [7] = test: Inhibition of recombinant metallo-beta-lactamase L-1 (unknown origin) expressed in Escherichia coli BL21 (DE3) cells using cefazolin as substrate at 20 uM by spectrometric analysis relative to control
Escherichia coli [8] = test: Synergistic antibacterial activity against Escherichia coli clinical isolate 04 assessed as meropenem MIC at 64 microg/ml measured after 16 hrs by CLSI protocol based broth microdilution method (reference value: 256 microg/ml); format: functional; settings: dose 64 µg/ml
Escherichia coli [9] = test: Antibacterial activity against Escherichia coli harboring NDM-1 infected in Kunming mouse model assessed as reduction in bacterial load in spleen at 20 mg/kg, ip; format: functional, organism-based
Escherichia coli [10] = test: Antibacterial activity against Escherichia coli BL21 (DE3) harboring NDM-1 assessed as inhibition of bacterial growth upto 512 microg/ml by microdilution checkerboard assay; format: functional, organism-based; settings: dose <= 512.0 µg/ml
[11] = target: Metallo-beta-lactamase type 2 (Bacteria) (UniProt C7C422); test: Inhibition of recombinant NDM-1 (unknown origin) expressed in Escherichia coli BL21 (DE3) cells using meropenem as substrate at 20 uM by spectrometric analysis relative to control
Escherichia coli [12] = test: Synergistic antibacterial activity against Escherichia coli clinical isolate 10 assessed as decrease in bacterial colony at 128 microg/ml incubated for 12 hrs in presence of meropenem by imaging analysis; format: functional, organism-based; settings: dose 128.0 µg/ml
[13] = Inhibition of recombinant metallo-beta-lactamase IMP-1 (unknown origin) expressed in Escherichia coli BL21 (DE3) cells using meropenem as substrate by spectrometric analysis; design: species or system Bacteria
Bacteria [14] = test: Irreversible inhibition of recombinant serine beta lactamase KPC-2 (unknown origin) expressed in Escherichia coli BL21 (DE3) cells using cefazolin as substrate assessed as reduction in residual activity at 5 uM preincubated for 6 hrs followed by dialysis and measured after 24 hrs
Escherichia coli [15] = test: Synergistic antibacterial activity against Escherichia coli BL21 (DE3) harboring serine beta lactamase OXA-48 assessed as meropenem MIC at 64 microg/ml measured after 16 hrs by CLSI protocol based broth microdilution method (reference value: 1 microg/ml); format: functional; settings: dose 64 µg/ml
Escherichia coli [16] = test: Synergistic antibacterial activity against Escherichia coli clinical isolate 08 assessed as meropenem MIC at 64 microg/ml measured after 16 hrs by CLSI protocol based broth microdilution method (reference value: 128 microg/ml); format: functional; settings: dose 64 µg/ml
Escherichia coli [17] = test: Synergistic antibacterial activity against Escherichia coli BL21 (DE3) harboring metallo-beta lactamase IMP-1 assessed as fold decrease in meropenem MIC at 64 microg/ml measured after 16 hrs by CLSI protocol based broth microdilution method; format: functional; settings: dose 64 µg/ml
[18] = target: Metallo-beta-lactamase type 2 (Bacteria) (UniProt C7C422); test: Irreversible inhibition of recombinant NDM-1 (unknown origin) expressed in Escherichia coli BL21 (DE3) cells using meropenem as substrate assessed as reduction in residual activity at 5 uM preincubated for 6 hrs followed by dialysis and measured after 24 hrs
[19] = target: Metallo-beta-lactamase type 2 (Bacteria) (UniProt C7C422); test: Inhibition of recombinant NDM-1 (unknown origin) expressed in Escherichia coli BL21 (DE3) cells assessed as reduction in residual activity at 0.3 to 5 uM; settings: dose 0.3-5 µM, time 20.0 hrs, TDE = time-dependent effect
Escherichia coli [20] = test: Synergistic antibacterial activity against Escherichia coli clinical isolate 08 assessed as fold decrease in meropenem MIC at 64 microg/ml measured after 16 hrs by CLSI protocol based broth microdilution method; format: functional; settings: dose 64 µg/ml
Escherichia coli [21] = test: Synergistic antibacterial activity against Escherichia coli BL21 (DE3) harboring NDM-1 assessed as meropenem MIC at 64 microg/ml measured after 16 hrs by CLSI protocol based broth microdilution method (reference value: 256 microg/ml); format: functional; settings: dose 64 µg/ml
Bacteria [22] = test: Inhibition of recombinant metallo-beta-lactamase IMP-1 (unknown origin) expressed in Escherichia coli BL21 (DE3) cells using cefazolin as substrate assessed as residual activity at 20 uM relative to control
Klebsiella pneumoniae = test: Synergistic antibacterial activity against KPC and NDM-1 producing Klebsiella pneumoniae assessed as meropenem MIC at 64 microg/ml incubated for 16 hrs by CLSI protocol based broth microdilution method (reference value: 256 microg/ml); format: functional; settings: dose 64 µg/ml
Escherichia coli [23] = test: Antibacterial activity against Escherichia coli harboring NDM-1 infected in Kunming mouse model assessed as reduction in bacterial load in liver at 20 mg/kg, ip; format: functional, organism-based
Escherichia coli [24] = test: Synergistic antibacterial activity against Escherichia coli BL21 (DE3) harboring serine beta lactamase OXA-48 assessed as decrease in bacterial colony at 128 microg/ml incubated for 12 hrs in presence of meropenem by imaging analysis; format: functional, organism-based; settings: dose 128.0 µg/ml
Bacteria [25] = test: Inhibition of recombinant metallo-beta-lactamase IMP-1 (unknown origin) expressed in Escherichia coli BL21 (DE3) cells using cefazolin as substrate assessed as reduction in residual activity; settings: dose 0.075-20 µM
Bacteria [26] = test: Inhibition of recombinant IMP-1 (unknown origin) expressed in Escherichia coli BL21 (DE3) cells assessed as maximal inhibition at 5 uM incubated for 10 hrs
Escherichia coli [27] = test: Antibacterial activity against Escherichia coli BL21 (DE3) harboring metallo-beta-lactamase IMP-1 assessed as inhibition of bacterial growth upto 512 microg/ml by microdilution checkerboard assay; format: functional, organism-based; settings: dose <= 512.0 µg/ml
Escherichia coli [28] = test: Synergistic antibacterial activity against Escherichia coli harboring NDM-1 infected in Kunming mouse model assessed as reduction in bacterial load in liver at 20 mg/kg, ip co-administered with 10 mg/kg of meropenem; format: functional, organism-based
Escherichia coli [29] = test: Antibacterial activity against Escherichia coli BL21 (DE3) harboring serine beta lactamase OXA-48 assessed as inhibition of bacterial growth upto 512 microg/ml by microdilution checkerboard assay; format: functional, organism-based; settings: dose <= 512.0 µg/ml
Escherichia coli [30] = test: Synergistic antibacterial activity against Escherichia coli BL21 (DE3) harboring serine beta lactamase KPC-2 assessed as decrease in bacterial colony at 128 microg/ml incubated for 12 hrs in presence of meropenem by imaging analysis; format: functional, organism-based; settings: dose 128.0 µg/ml
Bacteria [31] = test: Inhibition of recombinant serine beta lactamase OXA-48 (unknown origin) expressed in Escherichia coli BL21 (DE3) cells assessed as reduction in residual activity incubated for 120 min; settings: dose 0.3-5 µM

In the case of O=C(CCCc1ccccc1)NOC(=O)OCc1ccccc1, the IC50 [1] is reported as 570 nM, the inhibition [2] is reported as “Dose-Dependent Effect” and the inhibition (Bacteria [3]) is reported as “Dose-Dependent Effect”. For the same compound, the “fold change (FC)” value (Escherichia coli [4]) was 2, the inhibition [5] was “Active” and the inhibition (Bacteria [6]) was “Dose-Dependent Effect”. The inhibition (Bacteria [7]) was less than 42%, the MIC (Escherichia coli [8]) was 128 µg/mL and the Activity (Escherichia coli [9]) was “inactive”. For the same compound, the Activity (Escherichia coli [10]) was “inactive”, the inhibition [11] was greater than 90% and the Activity (Escherichia coli [12]) was “Active”. The IC50 [13] was 1320 nM, the inhibition (Bacteria [14]) was “Active” and the MIC (Escherichia coli [15]) was 0.5 µg/mL. For the same compound, the MIC (Escherichia coli [16]) was 64 µg/mL, the “fold change (FC)” value (Escherichia coli [17]) was 4 and the inhibition [18] was “Active”. The inhibition [19] was “Tde”, the “fold change (FC)” value (Escherichia coli [20]) was 2 and the MIC (Escherichia coli [21]) was 32 µg/mL. For the same compound, the Activity (Bacteria [22]) was less than 10%, the MIC (Klebsiella pneumoniae) was 256 µg/mL and the Activity (Escherichia coli [23]) was “inactive”. The Activity (Escherichia coli [24]) was “Active”, the inhibition (Bacteria [25]) was “Dose-Dependent Effect” and the inhibition (Bacteria [26]) was “Active”. For the same compound, the Activity (Escherichia coli [27]) was “inactive”, the Activity (Escherichia coli [28]) was “Active” and the Activity (Escherichia coli [29]) was “inactive”. For the same compound, the Activity (Escherichia coli [30]) was “Active” and the inhibition (Bacteria [31]) was “Dose-Dependent Effect”.
